Measured values taken from patent US20230265151A1, “GIP/GLP1 CO-AGONIST COMPOUNDS” (priority 2020, published 2023).
Like-named read-outs stand apart in the source and are kept apart here. *1 amine or outer side, *2 acyl side, *3 side chain or, on linkers, in order; H or OH if unused. Where a SMILES comes first, the peptide text is derived from it. Side-chain parts run from the residue outwards. [ ]: non-standard residue; d: D form. The star is where a group is joined. Decanoyl(10-(4-HOOC-PhO)) = O=C(O)c1ccc(OCCCCCCCCCC(=O)*)cc1; αMePhe(2-F) = C[C@](N)(Cc1ccccc1F)C(=O)O; γGlu = O=C(O)[C@H](CCC(=O)[*:2])N[*:1]; αMeY = C[C@](N)(Cc1ccc(O)cc1)C(=O)O; αMeL = CC(C)C[C@](C)(N)C(=O)O; Orn = NCCC[C@H](N)C(=O)O; AEEA = NCCOCCOCC(=O)O; Aib = CC(C)(N)C(=O)O

How the values were obtained:
[1] = molecular target: T1, human Gcg receptor (hGcgR) (Homo sapiens, UniProt P47871); experiment: [125I]-Glucagon binding, SPA with membranes of HEK293 cells expressing hGcgR
T1 construct: expressed in transfected cells; crude membranes
T1 sequence (P47871 26-477): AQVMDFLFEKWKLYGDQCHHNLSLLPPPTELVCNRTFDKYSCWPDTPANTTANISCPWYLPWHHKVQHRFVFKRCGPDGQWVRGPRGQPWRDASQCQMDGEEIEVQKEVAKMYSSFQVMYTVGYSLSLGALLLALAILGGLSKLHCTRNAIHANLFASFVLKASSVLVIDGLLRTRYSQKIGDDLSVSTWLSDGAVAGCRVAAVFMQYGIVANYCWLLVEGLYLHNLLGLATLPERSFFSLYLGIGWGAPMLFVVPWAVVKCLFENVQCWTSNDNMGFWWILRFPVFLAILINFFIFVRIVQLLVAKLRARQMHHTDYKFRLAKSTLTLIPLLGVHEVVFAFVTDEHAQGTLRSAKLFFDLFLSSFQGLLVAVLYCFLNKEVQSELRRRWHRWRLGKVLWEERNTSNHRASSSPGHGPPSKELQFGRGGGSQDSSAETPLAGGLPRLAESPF

hGCGR = molecular target: T2, hGCGR (Homo sapiens, UniProt P47871); experiment: Functional cAMP formation (HTRF) in HEK-293 clonal cells expressing hGCGR, 0.1% bovine casein, without or with 1.0% human serum albumin; type: cell-based; conditions: hGCGR EC50, nM (SEM, n), cAMP, 37° C.
T2 construct: expressed in transfected cells
T2 sequence (P47871 26-477): as above
Method in brief: (§1)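 Cells were stimulated with peptide for 30 min at 37° C, then lysed in buffer carrying cAMP-d2 and anti-cAMP Eu3+-cryptate for a competitive HTRF read after at least 60 min at room temperature. The 665/620 nm ratio was converted to nM cAMP against a standard curve.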

hGLP-1R = hGLP-1R (Homo sapiens, UniProt P43220); experiment: Functional cAMP formation (HTRF) in HEK-293 clonal cells expressing hGLP-1R, 0.1% bovine casein, without or with 1.0% human serum albumin; type: cell-based; set-up: expressed in transfected cells; conditions: for Emax: percent of maximal response to GLP-1(7-36)NH2; for EC50: hGLP-1R EC50, nM (SEM, n), cAMP, 37° C.
Sequence of hGLP-1R (P43220 24-463): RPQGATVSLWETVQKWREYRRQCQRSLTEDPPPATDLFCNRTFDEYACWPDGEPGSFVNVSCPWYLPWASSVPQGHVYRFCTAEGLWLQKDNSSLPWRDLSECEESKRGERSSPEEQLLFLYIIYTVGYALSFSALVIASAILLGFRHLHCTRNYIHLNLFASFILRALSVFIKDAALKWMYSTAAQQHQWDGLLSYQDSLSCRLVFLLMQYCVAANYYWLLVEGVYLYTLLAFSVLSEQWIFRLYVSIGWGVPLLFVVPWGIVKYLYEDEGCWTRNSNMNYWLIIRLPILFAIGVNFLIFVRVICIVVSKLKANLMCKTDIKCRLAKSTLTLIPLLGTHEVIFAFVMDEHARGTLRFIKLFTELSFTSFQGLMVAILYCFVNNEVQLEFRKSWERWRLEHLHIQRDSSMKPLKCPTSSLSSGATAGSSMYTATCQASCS
Method in brief: as §1

[2] = molecular target: T3, human GLP-1 receptor (hGLP-1R) (Homo sapiens, UniProt P43220); experiment: [125I]-GLP-1 binding, SPA with membranes of HEK293 cells expressing hGLP-1R
T3 construct: expressed in transfected cells; crude membranes
T3 sequence (P43220 24-463): as above

hGIPR = molecular target: T4, hGIPR (Homo sapiens, UniProt P48546); experiment: Functional cAMP formation (HTRF) in HEK-293 clonal cells expressing hGIPR, 0.1% bovine casein, without or with 1.0% human serum albumin; type: cell-based; conditions: for Emax: percent of maximal response to GIP(1-42)NH2; for EC50: hGIPR EC50, nM (SEM, n), cAMP, 37° C.
T4 construct: expressed in transfected cells
T4 sequence (P48546 22-466): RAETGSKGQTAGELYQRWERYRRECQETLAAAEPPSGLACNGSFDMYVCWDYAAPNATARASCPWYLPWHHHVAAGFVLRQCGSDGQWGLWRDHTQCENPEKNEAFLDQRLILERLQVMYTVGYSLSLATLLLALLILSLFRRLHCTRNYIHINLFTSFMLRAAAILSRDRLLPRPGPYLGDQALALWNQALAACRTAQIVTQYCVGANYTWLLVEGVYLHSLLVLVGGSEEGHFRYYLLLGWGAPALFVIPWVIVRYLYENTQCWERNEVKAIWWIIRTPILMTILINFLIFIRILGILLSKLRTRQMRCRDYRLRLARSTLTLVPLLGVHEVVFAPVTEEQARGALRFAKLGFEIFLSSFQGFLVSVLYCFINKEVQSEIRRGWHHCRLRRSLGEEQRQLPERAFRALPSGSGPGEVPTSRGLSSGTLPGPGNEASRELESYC
Method in brief: as §1

[3] = 0.1% bovine casein (no human serum albumin), geometric mean
[4] = 0.1% bovine casein and 1.0% human serum albumin, geometric mean (SEM, n)
[5] = HEK293, read-out: hGIPR Emax, % ± SEM, cAMP, 37° C., 0.1% bovine casein and 1.0% human serum albumin

Structure (SMILES) | Ki [1] [nM] | EC50 (hGCGR; [3]) [nM] | EC50 (hGCGR; [4]) [nM] | Emax (hGLP-1R; HEK293, read-out: hGLP-1R Emax, % ± SEM, cAMP, 37° C., 0.1% bovine casein and 1.0% human serum albumin) [%] | EC50 (hGLP-1R; [3]) [nM] | EC50 (hGLP-1R; [4]) [nM] | Ki [2] [nM] | Emax (hGIPR; [5]) [%] | Emax (hGIPR; HEK293, read-out: hGIPR Emax, % ± SEM, cAMP, 37° C., 0.1% bovine casein, arithmetic mean) [%] | EC50 (hGIPR; [3]) [nM] | Emax (hGLP-1R; HEK293, read-out: hGLP-1R Emax, % ± SEM, cAMP, 37° C., 0.1% bovine casein, arithmetic mean) [%] | EC50 (hGIPR; [4]) [nM]
CC[C@H](C)[C@H](NC(=O)[C@H](CC(C)C)NC(=O)[C@](C)(Cc1ccc(O)cc1)NC(=O)[C@H](CCCCNC(=O)COCCOCCNC(=O)COCCOCCNC(=O)CC[C@H](NC(=O)CCCCCCCCCOc1ccc(C(=O)O)cc1)C(=O)O)NC(=O)[C@@H](NC(=O)[C@H](Cc1ccccc1)NC(=O)[C@H](CCC(=O)O)NC(=O)C(C)(C)NC(=O)[C@H](CCC(N)=O)NC(=O)[C@H](C)NC(=O)[C@H](CCC(N)=O)NC(=O)[C@H](CCCN)NC(=O)[C@H](CC(=O)O)NC(=O)[C@H](CC(C)C)NC(=O)[C@](C)(CC(C)C)NC(=O)[C@@H](NC(=O)C(C)(C)NC(=O)[C@@H](NC(=O)[C@H](CC(=O)O)NC(=O)[C@H](CO)NC(=O)[C@@H](NC(=O)[C@](C)(Cc1ccccc1F)NC(=O)[C@@H](NC(=O)CNC(=O)[C@H](CCC(=O)O)NC(=O)C(C)(C)NC(=O)[C@@H](N)Cc1ccc(O)cc1)[C@@H](C)O)[C@@H](C)O)C(C)C)[C@@H](C)CC)[C@@H](C)CC)C(=O)N[C@@H](CCCCNC(=O)COCCOCCNC(=O)COCCOCCNC(=O)CC[C@H](NC(=O)CCCCCCCCCOc1ccc(C(=O)O)cc1)C(=O)O)C(=O)NCC(=O)NCC(=O)N1CCC[C@H]1C(=O)N[C@@H](CO)C(=O)N[C@@H](CO)C(=O)NCC(=O)N[C@@H](C)C(=O)N1CCC[C@H]1C(=O)N1CCC[C@H]1C(=O)N1CCC[C@H]1C(=O)N[C@@H](CO)C(N)=O [Example 446] (H-Y[Aib]EGT[αMePhe(2-F)]TSDV[Aib]I[αMeL]LD[Orn]QAQ[Aib]EFIK([AEEA-AEEA-γGlu-Decanoyl(10-(4-HOOC-PhO))])[αMeY]LIK([AEEA-AEEA-γGlu-Decanoyl(10-(4-HOOC-PhO))])GGPSSGAPPPS-NH2) | 109 | > 9950 | > 9950 | 105 | 0.162 | 33.5 | 0.382 | 97 | 105 | 0.0164 |  | 
CC[C@H](C)[C@H](NC(=O)[C@H](CC(C)C)NC(=O)[C@](C)(Cc1ccc(O)cc1)NC(=O)[C@H](CCCCNC(=O)COCCOCCNC(=O)COCCOCCNC(=O)CC[C@H](NC(=O)CC[C@H](NC(=O)CCCCCCCCCOc1ccc(C(=O)O)cc1)C(=O)O)C(=O)O)NC(=O)[C@@H](NC(=O)[C@H](Cc1ccccc1)NC(=O)[C@H](CCCN)NC(=O)C(C)(C)NC(=O)[C@H](CCC(N)=O)NC(=O)[C@H](C)NC(=O)[C@H](CCC(N)=O)NC(=O)[C@H](CCCN)NC(=O)[C@H](CC(=O)O)NC(=O)[C@H](CC(C)C)NC(=O)[C@](C)(CC(C)C)NC(=O)[C@@H](NC(=O)C(C)(C)NC(=O)[C@H](Cc1ccncc1)NC(=O)[C@H](CC(=O)O)NC(=O)[C@H](CO)NC(=O)[C@@H](NC(=O)[C@](C)(Cc1ccccc1F)NC(=O)[C@@H](NC(=O)CNC(=O)[C@H](CCC(=O)O)NC(=O)C(C)(C)NC(=O)[C@@H](N)Cc1ccc(O)cc1)[C@@H](C)O)[C@@H](C)O)[C@@H](C)CC)[C@@H](C)CC)C(=O)N[C@@H](CCCCNC(=O)COCCOCCNC(=O)COCCOCCNC(=O)CC[C@H](NC(=O)CC[C@H](NC(=O)CCCCCCCCCOc1ccc(C(=O)O)cc1)C(=O)O)C(=O)O)C(=O)NCC(=O)NCC(=O)N1CCC[C@H]1C(=O)N[C@@H](CO)C(=O)N[C@@H](CO)C(=O)NCC(=O)N[C@@H](C)C(=O)N1CCC[C@H]1C(=O)N1CCC[C@H]1C(=O)N1CCC[C@H]1C(=O)N[C@@H](CO)C(N)=O [Example 475] | 139 | > 9950 | > 9950 |  | 0.143 |  | 0.189 | 84.6 |  | 0.012 | 116 | 0.211
